Test system: E. coli
Experiment: Efficacy of treated coupons after inoculation with E. coli (Examples II-V)
Assay type: cell-based
Conditions: Examples IV/V: organosilane with triethanolamine coating first, Titanium Oxide Moieties (TiO2) disposed over it
Method: This Example II disposes the components of the composition onto a target surface in a reverse order. More specifically, Applicants first dispose the Titanium-Oxide Moieties onto the target surface, the aqueous portion of the first spray deposition is evaporated, and then dispose Octadecylaminodimethyltrihydroxysilylpropyl Ammonium Chloride 6 over the earlier-disposed Titanium-Oxide Moieties.
The test coupons of this Example II were prepared and using the Procedure recited immediately hereinbelow. In various embodiments, the treated coupons were stored for at least four (4) weeks prior to inoculation with various organisms.
This Example III simultaneously disposes a mixture of the organosilane and the Titanium-Oxide Moieties onto the surface of a plurality of test coupons. More specifically in this Example III, the simultaneously dispose the Titanium-Oxide Moieties and Octadecylaminodimethyltrihydroxysilylpropyl Ammonium Chloride 6 onto a surface of each test coupon.
The test coupons of this Example III were prepared and using the Procedure recited immediately hereinbelow. In various embodiments, the treated coupons were stored for at least four (4) weeks prior to inoculation with various organisms.
The test coupons of this Example IV were prepared and using the Procedure recited immediately hereinbelow. […]

## NCCC[Si](O)(O)O [3-aminopropyltrihydroxysilane]
  efficacy of treated coupons (self-decontaminating surface): generates a self-decontaminating surface

## O[Si](O)(O)CCCCl [3-chloropropyltrihydroxysilane]
  efficacy of treated coupons (self-decontaminating surface): generates a self-decontaminating surface

— patent publication US11369114B2, “Antimicrobial coatings comprising organosilane homopolymers” (ALLIED BIOSCIENCE, INC., priority 2014, dated 2022)
